The values that follow come from article PMC11474028, “Lipopeptide antibiotics disrupt interactions of undecaprenyl phosphate with UptA” (Proceedings of the National Academy of Sciences of the …, 2024).

Each structure is given as a SMILES string. Entries after “also recorded” stand apart in the source; their conditions may differ.

Holding throughout (set-up): species or system Bacillus subtilis
One experiment concerns UptA H119A. Briefly: Native MS of C55-P binding to UptA mutant H119A. As to conditions: 5 µM protein, 10 µM C55-P, pH 8.02, 0.05% LDAO, 200 mM ammonium acetate, collisional activation 100 V; three biological replicates. An excerpt: (§1) Conserved arginine residues in the putative membrane reentrant loops of E. coli DedA proteins YqjA (R130) and YghB (R136) are important for the cellular role of these proteins ([36]). […] How these residues impact substrate interactions, however, is not known. Based on the model structure of UptA predicted by AlphaFold, the R112 residue should engage Q64 while R118 is able to form hydrogen bonds with E32, H119, and W146 to potentially stabilize the membrane reentrant loops (Fig. 3A). To test for the impact of these residues on C55-P binding, we generated the E32A, Q64A, R112A, R118A, H119A, and W146A UptA single mutants. After purification of the proteins, using the same protocol as the wild type (WT) (Materials and Methods and SI Appendix, Fig. S5), we equilibrated aliquots of each protein variant (5 µM) with C55-P (10 µM) and recorded spectra using the same instrument settings. […] We additionally generated a double mutant R112E/R118E in which the polarity of both native arginine residues in the wild type are reversed.
(§2) Expression and purification of UptA
(§3) Plasmids were used to transform chemically competent E. coli C43(DE3) cells (Lucigen) and selected on LB/Agar containing 100 μg/ml ampicillin at 37 °C. Single colonies were used to inoculate 60 mL LB containing 100 μg/ml ampicillin and were grown at 37 °C overnight for 16 h. […]

The subject of a further experiment is UptA E32A. Briefly: Native MS of C55-P binding to UptA mutant E32A. The settings on record: 2.5 µM E32A UptA and 10 µM C55-P, pH 8.0.
Excerpt: Conserved arginine residues in the putative membrane reentrant loops of E. coli DedA proteins YqjA (R130) and YghB (R136) are important for the cellular role of these proteins ([36]). […] How these residues impact substrate interactions, however, is not known. Based on the model structure of UptA predicted by AlphaFold, the R112 residue should engage Q64 while R118 is able to form hydrogen bonds with E32, H119, and W146 to potentially stabilize the membrane reentrant loops (Fig. 3A). To test for the impact of these residues on C55-P binding, we generated the E32A, Q64A, R112A, R118A, H119A, and W146A UptA single mutants. After purification of the proteins, using the same protocol as the wild type (WT) (Materials and Methods and SI Appendix, Fig. […]
as §2, §3
The digestion mixture was subsequently incubated with 2-mL bed volume of nickel nitriloacetic acid (NTA) agarose resin to remove His-tagged GFP and TEV protease. […] Concentration was measured using a Biomate UV spectrophotometer at 280 nm using extinction coefficients calculated from their predicted amino […]

The subject of another experiment is UptA R112A/R118A. Briefly: Native MS of C55-P binding to UptA double mutant R112A/R118A. As to conditions: 5 µM protein, 10 µM C55-P, pH 8.02, 0.05% LDAO, 200 mM ammonium acetate, 100 V; mean of three biological replicates.
The test system of another experiment is UptA R118A/R119A. Briefly: Native MS of C55-P binding to UptA double mutant R118A/R119A. As to conditions: 5 µM protein, 10 µM C55-P, pH 8.02, 0.05% LDAO, 200 mM ammonium acetate, 100 V; mean of three biological replicates.
In a further experiment the test system is UptA R112E/R118E. Briefly: Native MS of C55-P binding to UptA double mutant R112E/R118E. As to conditions: 5 µM protein, 10 µM C55-P, pH 8.02, 0.05% LDAO, 200 mM ammonium acetate, 100 V; mean of three biological replicates.
Excerpt: as §1, §2, §3

`CC(C)=CCC/C(C)=C/CC/C(C)=C/CC/C(C)=C\CC/C(C)=C\CC/C(C)=C\CC/C(C)=C\CC/C(C)=C\CC/C(C)=C\CC/C(C)=C\CC/C(C)=C\COP(=O)(O)O` [C55-P, undecaprenyl phosphate]: the “reduction in C55-P binding intensity compared to wild type, H119A (in words)” value in the experiment on UptA H119A is recorded as “modest reduction”. Further, in the experiment on UptA E32A, the “C55-P binding to E32A UptA dimers versus monomers (in words)” value is reported as “more significantly than the monomeric form; also recorded: relative intensity of ligand-bound dimers is significantly higher than the ligand-bound monomers” and the “impact of C55-P binding on monomer–dimer ratio of E32A UptA (in words)” value is on record as “modest increase in the dimer fraction; also recorded: only a modest impact on the monomer–dimer ratios”. Besides, the “reduction in C55-P binding, R112A/R118A” value with UptA R112A/R118A is listed as 43%. For the same molecule, the “reduction in C55-P binding, R118A/R119A” value with UptA R118A/R119A stood at 46%. Also, the “reduction in the intensity of C55-P binding compared to wild type, R112E/R118E” value in the experiment with UptA R112E/R118E came to 63%.
